Data set [1] concerns the target T1, Voltage-gated potassium channel, IKs; KCNQ1(Kv7.1)/KCNE1(MinK) (Homo sapiens, UniProt P51787+P15382). In words: Inhibition of slow delayed inward rectifying potassium current (Iks) in Chinese Hamster Ovary (CHO) cells transfected with KCNQ1 / […] / KvLQT1 and KCNE1/minK measured using IonWorks automated patch clamp platform. The class given is functional, cell-based, Cricetulus griseus. On the technique in general: Patch clamp records ionic current or voltage across a cell membrane.

The target in data set [2] is T2, Voltage-dependent L-type calcium channel subunit alpha-1C (Homo sapiens, UniProt Q13936). As to the kind of experiment: Inhibition of long-lasting type calcium current (ICaL) in HEK293 cells (alpha1C/beta2a/alpha2delta1) cells measured using IonWorks Barracuda automated patch clamp platform. Format: functional, cell-based.
The target of data set [3] is T3, Voltage-gated inwardly rectifying potassium channel KCNH2 (Homo sapiens, UniProt Q12809).
Data set [4] has as its target T3, Voltage-gated inwardly rectifying potassium channel KCNH2. In words: Inhibition of rapid delayed inward rectifying potassium current (IKr) measured using manual patch clamp assay. The class given is functional.
Data set [5] addresses T2, Voltage-dependent L-type calcium channel subunit alpha-1C. In words: Inhibition of long-lasting type calcium current (hICa) in Chinese Hamster Ovary (CHO) cells expressing hCav1.2 measured using IonWorks Quattro automated patch clamp platform. Format: functional, cell-based, Cricetulus griseus.
The target in data set [6] is T3, Voltage-gated inwardly rectifying potassium channel KCNH2. In words: Inhibition of rapid delayed inward rectifying potassium current (IKr) in Chinese hamster ovary (CHO) K1 cells stably expressing hERG measured using IonWorks Quattro automated patch clamp platform. The class given is functional, cell-based, Cricetulus griseus. (The hERG channel carries a current that helps repolarise heart muscle cells.)

Data set [7] deals with T4, A-type voltage-gated potassium channel KCND3 (Homo sapiens, UniProt Q9UK17).
T4 sequence (Q9UK17 whole entry): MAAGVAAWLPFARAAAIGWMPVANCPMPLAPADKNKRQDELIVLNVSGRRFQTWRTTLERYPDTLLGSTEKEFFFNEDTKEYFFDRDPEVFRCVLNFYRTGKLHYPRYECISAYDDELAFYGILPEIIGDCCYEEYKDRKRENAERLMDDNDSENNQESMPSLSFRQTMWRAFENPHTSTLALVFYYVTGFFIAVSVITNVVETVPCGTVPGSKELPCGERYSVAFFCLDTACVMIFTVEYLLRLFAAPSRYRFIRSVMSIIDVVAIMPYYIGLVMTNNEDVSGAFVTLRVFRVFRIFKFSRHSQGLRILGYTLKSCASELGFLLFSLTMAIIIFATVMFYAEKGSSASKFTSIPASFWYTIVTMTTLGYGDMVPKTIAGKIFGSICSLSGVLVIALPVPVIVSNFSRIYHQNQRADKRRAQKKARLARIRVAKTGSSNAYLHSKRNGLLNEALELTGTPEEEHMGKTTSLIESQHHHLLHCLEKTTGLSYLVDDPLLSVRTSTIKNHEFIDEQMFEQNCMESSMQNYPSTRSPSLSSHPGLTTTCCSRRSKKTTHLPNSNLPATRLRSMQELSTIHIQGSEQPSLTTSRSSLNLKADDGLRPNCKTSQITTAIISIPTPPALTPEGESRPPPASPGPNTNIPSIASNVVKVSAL
As to the kind of experiment: Inhibition of transient outward potassium current (Ito) current in Chinese Hamster Ovary (CHO) K1 cells expressing human Kv4.3 measured using IonWorks Quattro automated patch clamp platform. Format: functional, cell-based, Cricetulus griseus.

Data set [8] addresses T1, Voltage-gated potassium channel, IKs; KCNQ1(Kv7.1)/KCNE1(MinK). In words: (§1) Inhibition of slow delayed inward rectifying potassium current (Iks) in Chinese Hamster Ovary (CHO) cells expressing hKvLQT1/hminK measured using IonWorks Quattro automated patch clamp platform. The class given is functional, cell-based, Cricetulus griseus.
Data set [9] addresses Voltage-gated potassium channel, IKs; KCNQ1(Kv7.1)/KCNE1(MinK) (Homo sapiens, UniProt P15382+P51787). Described as §1. Format: functional, cell-based, Cricetulus griseus.
The target of data set [10] is T3, Voltage-gated inwardly rectifying potassium channel KCNH2. In words: Inhibition of rapid delayed inward rectifying potassium current (IKr) in Chinese hamster ovary (CHO) cells stable expressing hERG measured using IonWorks Barracuda automated patch clamp platform. The class given is functional, cell-based, Cricetulus griseus.
For data set [11], the target named is Sodium channel protein type 5 subunit alpha (Homo sapiens, UniProt Q14524). In words: Inhibition of fast sodium current (INa) in HEK293 cells transfected with human Nav1.5 measured using IonWorks Quattro automated patch clamp platform. The class given is functional, cell-based.

Consider 21 molecules from ChEMBL document CHEMBL3430320, “Prediction of Thorough QT study results using action potential simulations based on ion channel screens” (J Pharmacol Toxicol Methods, 2014).

Structures are written as SMILES.

T2 sequence (Q13936 whole entry): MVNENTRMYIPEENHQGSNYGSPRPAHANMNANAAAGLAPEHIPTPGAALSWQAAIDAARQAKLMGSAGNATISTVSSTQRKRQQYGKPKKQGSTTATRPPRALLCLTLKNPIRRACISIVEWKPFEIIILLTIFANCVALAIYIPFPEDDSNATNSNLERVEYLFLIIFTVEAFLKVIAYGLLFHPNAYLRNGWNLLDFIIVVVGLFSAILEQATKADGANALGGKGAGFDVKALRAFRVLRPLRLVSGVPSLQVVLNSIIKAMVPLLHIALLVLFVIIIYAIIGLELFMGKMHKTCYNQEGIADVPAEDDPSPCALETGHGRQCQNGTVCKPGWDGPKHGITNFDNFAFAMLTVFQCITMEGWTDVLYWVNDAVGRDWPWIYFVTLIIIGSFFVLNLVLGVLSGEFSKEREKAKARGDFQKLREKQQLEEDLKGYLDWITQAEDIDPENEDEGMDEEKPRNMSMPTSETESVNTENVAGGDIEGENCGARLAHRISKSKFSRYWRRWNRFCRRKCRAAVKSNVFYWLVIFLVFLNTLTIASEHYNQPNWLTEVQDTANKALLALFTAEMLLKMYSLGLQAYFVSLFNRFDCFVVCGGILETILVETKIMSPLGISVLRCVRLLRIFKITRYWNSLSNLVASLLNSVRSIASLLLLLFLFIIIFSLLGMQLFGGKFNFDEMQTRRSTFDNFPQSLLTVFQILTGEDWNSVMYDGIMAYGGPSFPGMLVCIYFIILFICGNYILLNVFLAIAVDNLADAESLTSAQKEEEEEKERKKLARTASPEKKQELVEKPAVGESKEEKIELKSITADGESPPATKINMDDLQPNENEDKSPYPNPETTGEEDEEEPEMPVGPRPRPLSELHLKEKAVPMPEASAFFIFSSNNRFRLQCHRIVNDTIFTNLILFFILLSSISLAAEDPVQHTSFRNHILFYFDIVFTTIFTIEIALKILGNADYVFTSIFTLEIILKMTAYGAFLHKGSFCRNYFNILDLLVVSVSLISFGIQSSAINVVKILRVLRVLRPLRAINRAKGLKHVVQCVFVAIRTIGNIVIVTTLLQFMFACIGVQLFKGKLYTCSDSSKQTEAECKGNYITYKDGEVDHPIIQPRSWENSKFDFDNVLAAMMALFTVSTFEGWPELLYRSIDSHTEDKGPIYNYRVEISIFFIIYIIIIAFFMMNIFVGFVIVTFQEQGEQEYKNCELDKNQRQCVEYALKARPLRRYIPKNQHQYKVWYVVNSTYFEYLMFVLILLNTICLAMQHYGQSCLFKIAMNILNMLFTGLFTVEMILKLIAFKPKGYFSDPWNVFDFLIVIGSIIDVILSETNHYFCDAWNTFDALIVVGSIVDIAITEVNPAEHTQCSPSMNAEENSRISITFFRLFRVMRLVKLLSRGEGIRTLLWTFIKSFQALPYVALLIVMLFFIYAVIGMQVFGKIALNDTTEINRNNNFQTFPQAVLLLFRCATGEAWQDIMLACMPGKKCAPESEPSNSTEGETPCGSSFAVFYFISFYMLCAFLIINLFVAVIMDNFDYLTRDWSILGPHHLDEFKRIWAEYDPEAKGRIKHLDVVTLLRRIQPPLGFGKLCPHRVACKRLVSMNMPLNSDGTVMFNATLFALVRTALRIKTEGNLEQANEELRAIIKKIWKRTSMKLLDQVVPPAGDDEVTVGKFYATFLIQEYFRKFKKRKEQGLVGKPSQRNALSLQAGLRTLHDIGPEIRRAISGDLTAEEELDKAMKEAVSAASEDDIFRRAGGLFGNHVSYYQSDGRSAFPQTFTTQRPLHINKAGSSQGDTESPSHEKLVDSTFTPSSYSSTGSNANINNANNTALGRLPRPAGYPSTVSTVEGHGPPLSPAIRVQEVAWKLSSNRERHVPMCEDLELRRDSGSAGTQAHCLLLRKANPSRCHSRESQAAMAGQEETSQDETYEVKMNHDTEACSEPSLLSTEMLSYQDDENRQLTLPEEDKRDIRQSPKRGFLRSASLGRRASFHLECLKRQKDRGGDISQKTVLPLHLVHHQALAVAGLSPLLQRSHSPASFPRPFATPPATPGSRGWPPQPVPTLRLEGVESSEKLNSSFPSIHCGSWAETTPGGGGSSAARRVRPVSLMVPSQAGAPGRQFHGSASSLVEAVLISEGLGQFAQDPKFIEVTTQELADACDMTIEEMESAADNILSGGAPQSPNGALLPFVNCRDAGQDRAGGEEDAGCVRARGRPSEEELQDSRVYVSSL
T3 sequence (Q12809 whole entry): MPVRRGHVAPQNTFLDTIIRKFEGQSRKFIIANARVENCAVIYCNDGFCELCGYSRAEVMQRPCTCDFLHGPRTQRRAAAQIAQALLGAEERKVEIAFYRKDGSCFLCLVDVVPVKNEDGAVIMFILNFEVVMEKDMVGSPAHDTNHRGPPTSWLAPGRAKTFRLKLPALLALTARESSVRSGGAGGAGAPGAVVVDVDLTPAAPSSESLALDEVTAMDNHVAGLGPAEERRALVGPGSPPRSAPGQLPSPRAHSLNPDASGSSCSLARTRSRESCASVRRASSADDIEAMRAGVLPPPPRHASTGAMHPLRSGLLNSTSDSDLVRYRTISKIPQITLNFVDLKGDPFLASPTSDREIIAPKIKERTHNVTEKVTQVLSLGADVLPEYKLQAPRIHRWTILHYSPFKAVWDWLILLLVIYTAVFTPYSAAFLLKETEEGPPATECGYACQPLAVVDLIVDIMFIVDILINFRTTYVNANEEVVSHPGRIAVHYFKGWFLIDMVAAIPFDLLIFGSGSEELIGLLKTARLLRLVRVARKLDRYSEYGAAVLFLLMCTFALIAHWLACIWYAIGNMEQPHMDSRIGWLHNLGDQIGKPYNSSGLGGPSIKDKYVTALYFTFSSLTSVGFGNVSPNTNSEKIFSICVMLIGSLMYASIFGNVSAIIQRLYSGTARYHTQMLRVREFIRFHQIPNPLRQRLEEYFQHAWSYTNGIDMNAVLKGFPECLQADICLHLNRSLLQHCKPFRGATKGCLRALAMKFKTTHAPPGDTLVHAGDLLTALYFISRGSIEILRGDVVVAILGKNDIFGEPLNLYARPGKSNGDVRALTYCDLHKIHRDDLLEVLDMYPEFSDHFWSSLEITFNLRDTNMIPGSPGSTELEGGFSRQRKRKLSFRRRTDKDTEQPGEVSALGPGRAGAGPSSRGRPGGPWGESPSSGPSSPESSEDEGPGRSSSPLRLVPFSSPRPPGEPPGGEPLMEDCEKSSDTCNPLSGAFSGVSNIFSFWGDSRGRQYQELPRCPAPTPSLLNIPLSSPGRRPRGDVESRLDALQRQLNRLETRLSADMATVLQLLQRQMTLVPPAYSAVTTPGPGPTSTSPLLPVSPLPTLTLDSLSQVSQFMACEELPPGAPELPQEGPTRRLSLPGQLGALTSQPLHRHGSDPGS
T1 sequence (P51787 whole entry): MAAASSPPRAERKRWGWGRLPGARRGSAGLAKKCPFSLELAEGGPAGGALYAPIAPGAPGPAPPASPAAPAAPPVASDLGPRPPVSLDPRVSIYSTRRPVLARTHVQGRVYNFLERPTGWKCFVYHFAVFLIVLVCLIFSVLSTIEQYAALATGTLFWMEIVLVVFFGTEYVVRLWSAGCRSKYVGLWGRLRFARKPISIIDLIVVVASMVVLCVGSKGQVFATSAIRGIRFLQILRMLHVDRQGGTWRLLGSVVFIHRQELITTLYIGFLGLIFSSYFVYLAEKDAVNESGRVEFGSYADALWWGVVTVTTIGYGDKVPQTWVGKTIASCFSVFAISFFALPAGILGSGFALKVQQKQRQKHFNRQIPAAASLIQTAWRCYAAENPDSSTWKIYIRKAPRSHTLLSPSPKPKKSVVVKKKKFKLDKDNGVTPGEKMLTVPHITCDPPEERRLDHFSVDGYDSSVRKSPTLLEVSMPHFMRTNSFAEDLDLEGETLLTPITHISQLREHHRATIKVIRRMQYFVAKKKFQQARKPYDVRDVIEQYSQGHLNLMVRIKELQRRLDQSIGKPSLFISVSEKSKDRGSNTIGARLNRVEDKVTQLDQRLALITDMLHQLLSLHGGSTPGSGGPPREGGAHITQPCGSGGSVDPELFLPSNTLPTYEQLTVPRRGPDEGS
Sequence of Voltage-gated potassium channel, IKs; KCNQ1(Kv7.1)/KCNE1(MinK) (Homo sapiens, UniProt P15382+P51787) (P51787 whole entry): as the sequence (P51787 whole entry) above

One may read the pIC50 as the IC50 on a negative log10 scale, so that one unit is a factor of ten. As for `COc1cc2nc(N(C)CCCNC(=O)C3CCCO3)nc(N)c2cc1OC` (stereo unspecified) [ALFUZOSIN], the pIC50 result in data set [1] and in [2] was “Inactive” each time.

Broadly, the IC50 is the concentration that inhibits the measured activity by half. Lower therefore signals greater potency in that assay. Regarding `C[C@H](Cc1cc2c(c(C(N)=O)c1)N(CCCO)CC2)NCCOc1ccccc1OCC(F)(F)F` [SILODOSIN], in data set [3], it took 7.94 µM to reach half-maximal inhibition (IC50).

Take `OC(CNCC(O)C1CCc2cc(F)ccc2O1)C1CCc2cc(F)ccc2O1` (stereo unspecified) [NEBIVOLOL]: in data set [4], half-maximal inhibition (IC50) required 0.316 µM. The pIC50 entry in data set [5] is “Inactive”.

Take `Cc1cn([C@@H]2C[C@@H](O)[C@H](CO)O2)c(=O)[nH]c1=O` [TELBIVUDINE]: the pIC50 result is “Inactive” in data set [5], 2.3 in data set [6] and “Inactive” in data set [7].

Regarding `Cc1cn(-c2cc(NC(=O)c3ccc(C)c(Nc4nccc(-c5cccnc5)n4)c3)cc(C(F)(F)F)c2)cn1` [NILOTINIB], in [1], the pIC50 result was “Inactive”.

Consider `C[C@@H](O)[C@H]1C(=O)N2C(C(=O)O)=C(S[C@@H]3CN[C@H](CNS(N)(=O)=O)C3)[C@H](C)[C@H]12` [DORIPENEM], for which the pIC50 result in [7] is “Inactive”.

For the molecule `CC1=NN(c2ccc(C)c(C)c2)C(=O)/C1=N\Nc1cccc(-c2cccc(C(=O)O)c2)c1O` [ELTROMBOPAG], the pIC50 entry in data set [5], in [6], in data set [8], in data set [1] and in data set [2] was “Inactive” throughout.

With `Cc1nc(Nc2ncc(C(=O)Nc3c(C)cccc3Cl)s2)cc(N2CCN(CCO)CC2)n1.O` [DASATINIB], the pIC50 entry in [1] was “Inactive”.

For `Nc1nnc(-c2cccc(Cl)c2Cl)c(N)n1` [LAMOTRIGINE], the pIC50 result in data set [1] and in [7] was “Inactive” in each case.

Take `CO[C@H]1C[C@@H]2CC[C@@H](C)[C@@](O)(O2)C(=O)C(=O)N2CCCC[C@H]2C(=O)O[C@H]([C@H](C)C[C@@H]2CC[C@@H](OCCO)[C@H](OC)C2)CC(=O)[C@H](C)/C=C(\C)[C@@H](O)[C@@H](OC)C(=O)[C@H](C)C[C@H](C)/C=C/C=C/C=C/1C` [EVEROLIMUS]: the pIC50 result in [5], in data set [1] and in data set [2] was “Inactive” in each case.

Regarding `N[C@@H](CC(=O)N1CCn2c(nnc2C(F)(F)F)C1)Cc1cc(F)c(F)cc1F` [SITAGLIPTIN], the pIC50 result in data set [1] and in data set [2] was “Inactive” throughout.

Take `Cc1cc(C#N)cc(C)c1Oc1nc(Nc2ccc(C#N)cc2)nc(N)c1Br` [ETRAVIRINE]: the pIC50 entry in [5], in [1] and in data set [2] was “Inactive” throughout.

`Cc1ccc(O)c([C@H](CCN(C(C)C)C(C)C)c2ccccc2)c1` [TOLTERODINE]: in [9], it took 79.4 µM to reach half-maximal inhibition (IC50). This counts as double-digit micromolar.

For the molecule `O=C1c2cccc3c2[C@H](CCC3)CN1[C@@H]1CN2CCC1CC2` [PALONOSETRON], half-maximal inhibition in [4] (IC50) required 2 µM. The pIC50 entry in data set [7] was “Inactive”.

As to `COC(c1ccccc1)(c1ccccc1)[C@H](Oc1nc(C)cc(C)n1)C(=O)O` [AMBRISENTAN], the pIC50 in data set [6] is listed as 2.1; in data set [10], “Inactive”; in [2] it was “Inactive”.

With `CCCc1nc(C)c2c(=O)[nH]c(-c3cc(S(=O)(=O)N4CCN(CC)CC4)ccc3OCC)nn12`, in data set [1], the pIC50 result is “Inactive”.

With `O=C(O)c1ccc(-n2nc(-c3ccccc3O)nc2-c2ccccc2O)cc1` [DEFERASIROX], the pIC50 result in data set [6], in data set [10], in data set [8], in [1] and in data set [2] was “Inactive” throughout.

On to `CS(=O)(=O)CCNCc1ccc(-c2ccc3ncnc(Nc4ccc(OCc5cccc(F)c5)c(Cl)c4)c3c2)o1` [LAPATINIB], for which the pIC50 entry in data set [11], in data set [1] and in data set [7] was “Inactive” throughout.

For `CN(C)CC(c1ccc(O)cc1)C1(O)CCCCC1` (stereo unspecified) [DESVENLAFAXINE], the pIC50 entry in data set [5] is “Inactive”; in [6], 1.7; in [10] it was “Inactive”; in data set [8] it was “Inactive”; in data set [1], “Inactive”; in [2] it was “Inactive”.

On to `Cc1c(O)cccc1C(=O)N[C@@H](CSc1ccccc1)[C@H](O)CN1C[C@H]2CCCC[C@H]2C[C@H]1C(=O)NC(C)(C)C`, for which the pIC50 entry in data set [5], in data set [1] and in data set [2] was “Inactive” each time.

`C[C@H]1CN(C[C@H](Cc2ccccc2)C(=O)NCC(=O)O)CC[C@@]1(C)c1cccc(O)c1` [ALVIMOPAN]: in data set [7], the pIC50 result was “Inactive”.
